# Experimental data from patent publication US20260199484A1, “PROTAC DEGRADERS OF MLLT1 AND/OR MLLT3” (DARK BLUE THERAPEUTICS LTD, priority 2024, published 2026).
# Experiments:
# MLLT1 = molecular target: T1, MLLT1 (Homo sapiens, UniProt Q03111); assay: MLLT1 degradation assay in MV4-11 cells (JESS, 24 h); assay type: cell-based; set-up: endogenous in cells; host or cells: MV4-11 (ATCC CRL-9591); conditions: vs DMSO control
# T1 sequence (Q03111 1-559): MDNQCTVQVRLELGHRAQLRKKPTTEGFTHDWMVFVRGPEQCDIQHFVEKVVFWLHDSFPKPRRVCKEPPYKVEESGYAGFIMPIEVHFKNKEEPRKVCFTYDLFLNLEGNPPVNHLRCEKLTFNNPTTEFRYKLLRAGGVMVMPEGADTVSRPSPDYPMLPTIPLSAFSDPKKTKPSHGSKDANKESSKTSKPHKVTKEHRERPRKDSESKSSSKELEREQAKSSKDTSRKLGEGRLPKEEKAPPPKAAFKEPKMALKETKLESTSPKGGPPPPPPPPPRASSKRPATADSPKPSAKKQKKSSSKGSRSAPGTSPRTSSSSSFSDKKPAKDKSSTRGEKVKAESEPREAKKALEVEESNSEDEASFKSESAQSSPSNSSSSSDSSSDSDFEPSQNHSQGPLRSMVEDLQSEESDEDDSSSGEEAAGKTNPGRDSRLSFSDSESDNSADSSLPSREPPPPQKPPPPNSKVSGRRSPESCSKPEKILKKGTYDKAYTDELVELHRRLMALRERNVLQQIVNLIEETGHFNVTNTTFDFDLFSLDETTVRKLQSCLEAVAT
# Method in brief: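 MV4-11 cells treated at 1000, 100 and 10 nM (0.1% DMSO) for 24 h at 37° C; lysates (4 ug protein) run on JESS capillary immunoassay with MLLT1 and GAPDH antibodies. Peak areas give % degradation versus DMSO, binned A (≥75%) to D (<25%).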
# MV4-11 cells = assay: MV4-11 cellular proliferative assay, Assay Format B (CTG 2.0, 168 h); assay type: cell-based; conditions: Homo sapiens, Assay format B, 168 h, read-out: IC50 (MV4-11 cellular proliferative assay)
# Experimental: MV4-11 cells at a confluency of ~50-80% was used for cell growth assay. 600 cells/well in a 384-well opaque cell culture plate (6007680; Perkin Elmer) were seeded in 40 μL of complete medium (IMDM+10% FBS+1× Penicillin-Streptomycin). Cells were incubated overnight at 37° C., 5% CO2. 10 mM DMSO stocks were prepared, cells were treated with 10 concentrations of test compounds starting from 1 uM or 100 nM, 3-fold dilution in 10 uL (5× concentration) of complete medium. Final DMSO concentration was 0.3%. Culture plates were centrifuged at 40×g, 30s. Cells were incubated with compounds for 168 h (7 days). After 7 days, 20 uL CTG 2.0 reagent (G9242; Promega) was added per well and luminescence reading was taken in Envision Xcite 2105 multimode plate reader. Data was analyzed in GraphPad Prism 10.0 and data was shown as % viability with respect to DMSO control and dose-response curves were generated using four parameter logistic regression. Assay quality was determined by z-factor calculation using positive and negative controls.
Compound,MLLT1% Degradation @ 0.01 μM (MLLT1),MLLT1% Degradation @ 0.1 μM (MLLT1),MLLT1% Degradation @ 1 μM (MLLT1),IC50 (MV4-11 cells) [nM]
"Cc1nn(CCCCCCCC#Cc2ccc(F)c3c2CN(C2CCC(=O)NC2=O)C3=O)c2cc(C(=O)Nc3cc4[nH]c([C@H]5CCCN5C)c(Cl)c4cn3)ccc12 (stereo partly drawn) [Example 67, N-(3-chloro-2-((R)-1-methylpyrrolidin-2-yl)-1H-pyrrolo[3,2-c]pyridin-6-yl)-1-(9-(2-(2,6-dioxopiperidin-3-yl)-7-fluoro-1-oxoisoindolin-4-yl)non-8-yn-1-yl)-3-methyl-1H-indazole-6-carboxamide]",A (Category A: A≥75% degradation),A (Category A: A≥75% degradation),A (Category A: A≥75% degradation),< 100
"Cc1nn(C2CCN(CC#Cc3cccc4c3CN(C3CCC(=O)NC3=O)C4=O)CC2)c2cc(C(=O)Nc3cc4[nH]c([C@H]5CCCN5C)cc4cn3)ccc12 (stereo partly drawn) [Example 68, 1-(1-(3-(2-(2,6-dioxopiperidin-3-yl)-1-oxoisoindolin-4-yl)prop-2-yn-1-yl)piperidin-4-yl)-3-methyl-N-(2-((R)-1-methylpyrrolidin-2-yl)-1H-pyrrolo[3,2-c]pyridin-6-yl)-1H-indazole-6-carboxamide]",A (Category A: A≥75% degradation),A (Category A: A≥75% degradation),B (Category B: 50%≤B<75% degradation),< 100
"Cc1nn(C2CCN(CC3CCN(c4cc5c(cc4F)C(=O)N(C4CCC(=O)NC4=O)C5=O)CC3)CC2)c2cc(C(=O)Nc3cc4[nH]c([C@H]5CCCN5C)cc4cn3)ccc12 (stereo partly drawn) [Example 69, 1-(1-((1-(2-(2,6-dioxopiperidin-3-yl)-6-fluoro-1,3-dioxoisoindolin-5-yl)piperidin-4-yl)methyl)piperidin-4-yl)-3-methyl-N-(2-((R)-1-methylpyrrolidin-2-yl)-1H-pyrrolo[3,2-c]pyridin-6-yl)-1H-indazole-6-carboxamide]",A (Category A: A≥75% degradation),A (Category A: A≥75% degradation),A (Category A: A≥75% degradation),< 100
"Cc1nn(C2CCN(CC3CCN(c4ccc5c(c4)C(=O)N(C4CCC(=O)NC4=O)C5=O)CC3)CC2)c2cc(C(=O)Nc3cc4[nH]c([C@H]5CCCN5C)cc4cn3)ccc12 (stereo partly drawn) [Example 70, 1-(1-((1-(2-(2,6-dioxopiperidin-3-yl)-1,3-dioxoisoindolin-5-yl)piperidin-4-yl)methyl)piperidin-4-yl)-3-methyl-N-(2-((R)-1-methylpyrrolidin-2-yl)-1H-pyrrolo[3,2-c]pyridin-6-yl)-1H-indazole-6-carboxamide]",A (Category A: A≥75% degradation),A (Category A: A≥75% degradation),A (Category A: A≥75% degradation),< 100
"Cc1nn(CCCCCC2CCN(c3cccc4c3CN(C3CCC(=O)NC3=O)C4=O)CC2)c2cc(C(=O)Nc3cc4[nH]c([C@H]5CCCN5C)cc4cn3)ccc12 (stereo partly drawn) [Example 105, 1-(5-(1-(2-(2,6-dioxopiperidin-3-yl)-1-oxoisoindolin-4-yl)piperidin-4-yl)pentyl)-3-methyl-N-(2-((R)-1-methylpyrrolidin-2-yl)-1H-pyrrolo[3,2-c]pyridin-6-yl)-1H-indazole-6-carboxamide]",B (Category B: 50%≤B<75% degradation),A (Category A: A≥75% degradation),A (Category A: A≥75% degradation),< 100
"Cc1nn(CCCCCC2CCN(c3ccc4c(c3)C(=O)N(C3CCC(=O)NC3=O)C4=O)CC2)c2cc(C(=O)Nc3cc4[nH]c([C@H]5CCCN5C)cc4cn3)ccc12 (stereo partly drawn) [Example 109, 1-(5-(1-(2-(2,6-dioxopiperidin-3-yl)-1,3-dioxoisoindolin-5-yl)piperidin-4-yl)pentyl)-3-methyl-N-(2-((R)-1-methylpyrrolidin-2-yl)-1H-pyrrolo[3,2-c]pyridin-6-yl)-1H-indazole-6-carboxamide]",A (Category A: A≥75% degradation),A (Category A: A≥75% degradation),A (Category A: A≥75% degradation),< 100

# The next lines start with the values.
MLLT1% Degradation @ 0.01 μM (MLLT1),MLLT1% Degradation @ 0.1 μM (MLLT1),MLLT1% Degradation @ 1 μM (MLLT1),IC50 (MV4-11 cells) [nM],Compound
B (Category B: 50%≤B<75% degradation),A (Category A: A≥75% degradation),A (Category A: A≥75% degradation),< 100,"Cc1nn(C2CCN(CC3CCN(c4cccc5c4C(=O)N(C4CCC(=O)NC4=O)C5=O)CC3)CC2)c2cc(C(=O)Nc3cc4[nH]c([C@H]5CCCN5C)cc4cn3)ccc12 (stereo partly drawn) [Example 71, 1-(1-((1-(2-(2,6-dioxopiperidin-3-yl)-1,3-dioxoisoindolin-4-yl)piperidin-4-yl)methyl)piperidin-4-yl)-3-methyl-N-(2-((R)-1-methylpyrrolidin-2-yl)-1H-pyrrolo[3,2-c]pyridin-6-yl)-1H-indazole-6-carboxamide]"
A (Category A: A≥75% degradation),A (Category A: A≥75% degradation),B (Category B: 50%≤B<75% degradation),< 100,"Cc1nn(CC#Cc2cccc3c2CN(C2CCC(=O)NC2=O)C3=O)c2cc(C(=O)Nc3cc4[nH]c([C@H]5CCCN5C)cc4cn3)ccc12 (stereo partly drawn) [Example 72, 1-(3-(2-(2,6-dioxopiperidin-3-yl)-1-oxoisoindolin-4-yl)prop-2-yn-1-yl)-3-methyl-N-(2-((R)-1-methylpyrrolidin-2-yl)-1H-pyrrolo[3,2-c]pyridin-6-yl)-1H-indazole-6-carboxamide]"
B (Category B: 50%≤B<75% degradation),B (Category B: 50%≤B<75% degradation),A (Category A: A≥75% degradation),< 100,"Cc1nn(C2CCC(CCCC#Cc3cccc4c3CN(C3CCC(=O)NC3=O)C4=O)CC2)c2cc(C(=O)Nc3cc4[nH]c([C@H]5CCCN5C)cc4cn3)ccc12 (stereo partly drawn) [Example 74, 1-(4-(5-(2-(2,6-dioxopiperidin-3-yl)-1-oxoisoindolin-4-yl)pent-4-yn-1-yl)cyclohexyl)-3-methyl-N-(2-((R)-1-methylpyrrolidin-2-yl)-1H-pyrrolo[3,2-c]pyridin-6-yl)-1H-indazole-6-carboxamide]"
B (Category B: 50%≤B<75% degradation),A (Category A: A≥75% degradation),C (Category C: 25%≤C<50% degradation),< 100,"Cc1nn(CC2CCN(c3ccc4c(c3)C(=O)N(C3CCC(=O)NC3=O)C4=O)CC2)c2cc(C(=O)Nc3cc4[nH]c([C@H]5CCCN5C)cc4cn3)ccc12 (stereo partly drawn) [Example 104, 1-((1-(2-(2,6-dioxopiperidin-3-yl)-1,3-dioxoisoindolin-5-yl)piperidin-4-yl)methyl)-3-methyl-N-(2-((R)-1-methylpyrrolidin-2-yl)-1H-pyrrolo[3,2-c]pyridin-6-yl)-1H-indazole-6-carboxamide]"
A (Category A: A≥75% degradation),A (Category A: A≥75% degradation),A (Category A: A≥75% degradation),< 100,"Cc1nn(CC2CCN(c3cccc4c3CN(C3CCC(=O)NC3=O)C4=O)CC2)c2cc(C(=O)Nc3cc4[nH]c([C@H]5CCCN5C)cc4cn3)ccc12 (stereo partly drawn) [Example 106, 1-((1-(2-(2,6-dioxopiperidin-3-yl)-1-oxoisoindolin-4-yl)piperidin-4-yl)methyl)-3-methyl-N-(2-((R)-1-methylpyrrolidin-2-yl)-1H-pyrrolo[3,2-c]pyridin-6-yl)-1H-indazole-6-carboxamide]"
